Measurements: patent US11109593B2, “Isoxazolin-5-one derivative and herbicide containing same as active ingredient” (HOKKO CHEMICAL INDUSTRY CO., LTD., priority 2017, dated 2021)

The compounds below were run on Echinochloa crus-galli (assay: Test Example 1: herbicidal effect test by treatment of rice paddy soil (immediately after seeding)). Conditions: 120 g/10a active ingredient, dry weight vs untreated area, 14 days after treatment.
Type: in vivo
Outline: (§1)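 Paddy soil in pots with compound fertilizer, puddled; 30 seeds per species sown at 0–1 cm, flooded ~3 cm, greenhouse. Water-diluted emulsions dropped onto water immediately after seeding at 120 g active ingredient per 10 ares, duplicate. Herbicidal rate (%) from plant dry weight versus untreated, 14 days after treatment.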

SMILES	Herbicidal rate (%) Echinochloa crus-galli
Cc1c(Cc2ccccc2NS(=O)(=O)C(F)(F)F)c(=O)on1C1CCCc2ccccc21 (stereo not drawn) [Compound 1-224]	100%
CCCCCCCCn1oc(=O)c(Cc2ccccc2N(S(=O)(=O)C(F)(F)F)S(=O)(=O)C(F)(F)F)c1C [Compound 1-981]	80%
Cc1c(Cc2ccccc2N(S(=O)(=O)C(F)(F)F)S(=O)(=O)C(F)(F)F)c(=O)on1Cc1ccc(Br)cc1 [Compound 1-1016]	90%
C=CCn1oc(=O)c(Cc2ccccc2NS(=O)(=O)C(F)(F)F)c1C [Compound 1-135]	90%

Each compound was assayed on Scirpus juncoides in the same assay as above. Conditions: 120 g/10a active ingredient, dry weight vs untreated area, 14 days after treatment.
Type: in vivo
Outline: as §1

SMILES	Herbicidal rate (%) Scirpus juncoides
Cc1c(Cc2ccccc2NS(=O)(=O)C(F)(F)F)c(=O)on1C1CCCc2ccccc21 (stereo not drawn) [Compound 1-224]	90%
CCCCCCCCn1oc(=O)c(Cc2ccccc2N(S(=O)(=O)C(F)(F)F)S(=O)(=O)C(F)(F)F)c1C [Compound 1-981]	70%
Cc1c(Cc2ccccc2N(S(=O)(=O)C(F)(F)F)S(=O)(=O)C(F)(F)F)c(=O)on1Cc1ccc(Br)cc1 [Compound 1-1016]	80%
C=CCn1oc(=O)c(Cc2ccccc2NS(=O)(=O)C(F)(F)F)c1C [Compound 1-135]	90%

Each compound was assayed on broad leaf weeds (Lindernia pyxidaria and Monochoria vaginalis) in the same assay as above. Conditions: Lindernia pyxidaria, 120 g/10a active ingredient, dry weight vs untreated area, 14 days after treatment.
Type: in vivo
Outline: as §1

SMILES	Herbicidal rate (%) Lindernia pyxidaria
Cc1c(Cc2ccccc2NS(=O)(=O)C(F)(F)F)c(=O)on1C1CCCc2ccccc21 (stereo not drawn) [Compound 1-224]	100%
CCCCCCCCn1oc(=O)c(Cc2ccccc2N(S(=O)(=O)C(F)(F)F)S(=O)(=O)C(F)(F)F)c1C [Compound 1-981]	60%
Cc1c(Cc2ccccc2N(S(=O)(=O)C(F)(F)F)S(=O)(=O)C(F)(F)F)c(=O)on1Cc1ccc(Br)cc1 [Compound 1-1016]	90%
C=CCn1oc(=O)c(Cc2ccccc2NS(=O)(=O)C(F)(F)F)c1C [Compound 1-135]	90%

Same assay, conditions: Monochoria vaginalis, 120 g/10a active ingredient, dry weight vs untreated area, 14 days after treatment

SMILES	Herbicidal rate (%) Monochoria vaginalis
Cc1c(Cc2ccccc2NS(=O)(=O)C(F)(F)F)c(=O)on1C1CCCc2ccccc21 (stereo not drawn) [Compound 1-224]	100%
CCCCCCCCn1oc(=O)c(Cc2ccccc2N(S(=O)(=O)C(F)(F)F)S(=O)(=O)C(F)(F)F)c1C [Compound 1-981]	50%
Cc1c(Cc2ccccc2N(S(=O)(=O)C(F)(F)F)S(=O)(=O)C(F)(F)F)c(=O)on1Cc1ccc(Br)cc1 [Compound 1-1016]	60%
C=CCn1oc(=O)c(Cc2ccccc2NS(=O)(=O)C(F)(F)F)c1C [Compound 1-135]	60%

Each compound was assayed on Echinochloa crus-galli (assay: Test Example 2: herbicidal effect test by treatment during growing period in paddy rice cultivation (seven days after seeding)). Conditions: 120 g/10a active ingredient, assessed 14 days after treatment, dry weight vs untreated area.
Type: in vivo
Outline: (§2)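 Herbicidal rate = (1 − treated/untreated mean dry weight) × 100, scored 14 days after application, two replicates per rate. Treatment: diluted emulsion dropped onto paddy water seven days after sowing, 120 g active ingredient per 10 ares, in a glass greenhouse.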

SMILES	Herbicidal rate (%) Echinochloa crus-galli
Cc1c(Cc2ccccc2NS(=O)(=O)C(F)(F)F)c(=O)on1C1CCCc2ccccc21 (stereo not drawn) [Compound 1-224]	90%
CCCCCCCCn1oc(=O)c(Cc2ccccc2N(S(=O)(=O)C(F)(F)F)S(=O)(=O)C(F)(F)F)c1C [Compound 1-981]	90%
Cc1c(Cc2ccccc2N(S(=O)(=O)C(F)(F)F)S(=O)(=O)C(F)(F)F)c(=O)on1Cc1ccc(Br)cc1 [Compound 1-1016]	40%
C=CCn1oc(=O)c(Cc2ccccc2NS(=O)(=O)C(F)(F)F)c1C [Compound 1-135]	80%

These compounds were tested on Scirpus juncoides in the same assay as above. Conditions: 120 g/10a active ingredient, assessed 14 days after treatment, dry weight vs untreated area.
Type: in vivo
Outline: as §2

SMILES	Herbicidal rate (%) Scirpus juncoides
Cc1c(Cc2ccccc2NS(=O)(=O)C(F)(F)F)c(=O)on1C1CCCc2ccccc21 (stereo not drawn) [Compound 1-224]	80%
CCCCCCCCn1oc(=O)c(Cc2ccccc2N(S(=O)(=O)C(F)(F)F)S(=O)(=O)C(F)(F)F)c1C [Compound 1-981]	40%
Cc1c(Cc2ccccc2N(S(=O)(=O)C(F)(F)F)S(=O)(=O)C(F)(F)F)c(=O)on1Cc1ccc(Br)cc1 [Compound 1-1016]	60%
C=CCn1oc(=O)c(Cc2ccccc2NS(=O)(=O)C(F)(F)F)c1C [Compound 1-135]	90%

These compounds were tested on broad leaf weeds (Lindernia pyxidaria and Monochoria vaginalis) in the same assay as above. Conditions: Lindernia pyxidaria, 120 g/10a active ingredient, assessed 14 days after treatment, dry weight vs untreated area.
Type: in vivo
Outline: as §2

SMILES	Herbicidal rate (%) Lindernia pyxidaria
Cc1c(Cc2ccccc2NS(=O)(=O)C(F)(F)F)c(=O)on1C1CCCc2ccccc21 (stereo not drawn) [Compound 1-224]	60%
CCCCCCCCn1oc(=O)c(Cc2ccccc2N(S(=O)(=O)C(F)(F)F)S(=O)(=O)C(F)(F)F)c1C [Compound 1-981]	50%
Cc1c(Cc2ccccc2N(S(=O)(=O)C(F)(F)F)S(=O)(=O)C(F)(F)F)c(=O)on1Cc1ccc(Br)cc1 [Compound 1-1016]	70%
C=CCn1oc(=O)c(Cc2ccccc2NS(=O)(=O)C(F)(F)F)c1C [Compound 1-135]	40%

Same assay, conditions: Monochoria vaginalis, 120 g/10a active ingredient, assessed 14 days after treatment, dry weight vs untreated area

SMILES	Herbicidal rate (%) Monochoria vaginalis
Cc1c(Cc2ccccc2NS(=O)(=O)C(F)(F)F)c(=O)on1C1CCCc2ccccc21 (stereo not drawn) [Compound 1-224]	80%
CCCCCCCCn1oc(=O)c(Cc2ccccc2N(S(=O)(=O)C(F)(F)F)S(=O)(=O)C(F)(F)F)c1C [Compound 1-981]	40%
Cc1c(Cc2ccccc2N(S(=O)(=O)C(F)(F)F)S(=O)(=O)C(F)(F)F)c(=O)on1Cc1ccc(Br)cc1 [Compound 1-1016]	80%
C=CCn1oc(=O)c(Cc2ccccc2NS(=O)(=O)C(F)(F)F)c1C [Compound 1-135]	60%

These compounds were tested on Amaranthus viridis (assay: Test Example 3: herbicidal effect test by treatment of dry field farming soil (one day after seeding)). Conditions: 120 g/10a active ingredient, evaluated 14 days after treatment.
Type: in vivo
Description: (§3) This test was conducted in a double system per one agent solution concentration area, and the herbicidal rates (%) were determined by the following equation (Math. 1) on 14 days after the treatment with the agents. Herbicidal Rate (%)={1-(Average Dry Weight (g) of Plant of Treated Area)/(Average Dry Weight (g) of Plant of Untreated Area)}×100 [Math. 1]
(§4) Herbicidal Effect Test by Treatment of Dry Field Farming Soil
(§5) Pots with a size of 36 cm^2 were filled with a dry field farming soil (alluvium). The soil of the top layer of 1 cm and seeds of weeds, namely southern crabgrass, Echinochloa crus-galli, Chenopodium album and Amaranthus viridis, 20 seeds each, were evenly mixed, and the top layer was gently pressed. Emulsions prepared using the compounds in Table 5 below according to Formulation Example 5 were diluted with water one day after seeding, and the water-diluted agent solutions were sprayed to the soil surfaces at a ratio of 100 liters per 10 ares. The converted amount of the applied active ingredient corresponded to 120 g per 10 ares. The herbicidal effects were evaluated by the same standard as that in Test Example 1 on 14 days after the treatment with the agents. […] The compound numbers in Table 5 are the same as those in Table 1 and Table 2 above.

SMILES	herbicidal rate, Amaranthus viridis
Cc1c(Cc2ccccc2NS(=O)(=O)C(F)(F)F)c(=O)on1C1CCCc2ccccc21 (stereo not drawn) [Compound 1-224]	100%

The compounds below were run on Chenopodium album in the same assay as above. Conditions: 120 g/10a active ingredient, evaluated 14 days after treatment.
Type: in vivo
Description: as §3, §4, §5

SMILES	herbicidal rate, Chenopodium album
Cc1c(Cc2ccccc2NS(=O)(=O)C(F)(F)F)c(=O)on1C1CCCc2ccccc21 (stereo not drawn) [Compound 1-224]	90%

These compounds were tested on Echinochloa crus-galli in the same assay as above. Conditions: 120 g/10a active ingredient, evaluated 14 days after treatment.
Type: in vivo
Description: as §3, §4, §5

SMILES	herbicidal rate, Echinochloa crus-galli
Cc1c(Cc2ccccc2NS(=O)(=O)C(F)(F)F)c(=O)on1C1CCCc2ccccc21 (stereo not drawn) [Compound 1-224]	100%

The compounds below were run on southern crabgrass in the same assay as above. Conditions: 120 g/10a active ingredient, evaluated 14 days after treatment.
Type: in vivo
Description: as §3, §4, §5

SMILES	herbicidal rate, southern crabgrass
Cc1c(Cc2ccccc2NS(=O)(=O)C(F)(F)F)c(=O)on1C1CCCc2ccccc21 (stereo not drawn) [Compound 1-224]	100%
